Data published in ChEMBL document CHEMBL4373747 (ACS Med Chem Lett, 2020).

Columns and labels:
MDA-MB-231 = experiment: Cytotoxicity against human MDA-MB-231 cells assessed as reduction in cell viability incubated for 72 hrs by cell-titer blue assay; type: functional, cell-based; conditions: MDA-MB-231, 72 h
MDA-MB-468 = experiment: Cytotoxicity against human MDA-MB-468 cells assessed as reduction in cell viability incubated for 72 hrs by cell-titer blue assay; type: functional, cell-based; conditions: MDA-MB-468, 72 h
Histone deacetylase 3 = Histone deacetylase 3 (Homo sapiens, UniProt O15379); experiment: Inhibition of recombinant full length human HDAC3 expressed in baculovirus infected Sf9 cells using FAM-RHKK-Ac as substrate incubated for 3 hrs by electrophoretic mobility shift assay
MV4-11 = experiment: Cytotoxicity against human MV4-11 cells assessed as reduction in cell viability incubated for 72 hrs by cell-titer blue assay; type: functional, cell-based; conditions: MV4-11, 72 h
[1] = Cytotoxicity against human MRC9 cells assessed as reduction in cell viability incubated for 72 hrs by cell-titer blue assay; type: cell-based; conditions: MRC9, 72 h
[2] = target: T1, Protein deacetylase HDAC6 (Homo sapiens, UniProt Q9UBN7); experiment: Inhibition of recombinant full length human HDAC6 expressed in baculovirus infected Sf9 cells using FAM-RHKK-Ac as substrate incubated for 5 hrs by electrophoretic mobility shift assay
T1 sequence (Q9UBN7 whole entry): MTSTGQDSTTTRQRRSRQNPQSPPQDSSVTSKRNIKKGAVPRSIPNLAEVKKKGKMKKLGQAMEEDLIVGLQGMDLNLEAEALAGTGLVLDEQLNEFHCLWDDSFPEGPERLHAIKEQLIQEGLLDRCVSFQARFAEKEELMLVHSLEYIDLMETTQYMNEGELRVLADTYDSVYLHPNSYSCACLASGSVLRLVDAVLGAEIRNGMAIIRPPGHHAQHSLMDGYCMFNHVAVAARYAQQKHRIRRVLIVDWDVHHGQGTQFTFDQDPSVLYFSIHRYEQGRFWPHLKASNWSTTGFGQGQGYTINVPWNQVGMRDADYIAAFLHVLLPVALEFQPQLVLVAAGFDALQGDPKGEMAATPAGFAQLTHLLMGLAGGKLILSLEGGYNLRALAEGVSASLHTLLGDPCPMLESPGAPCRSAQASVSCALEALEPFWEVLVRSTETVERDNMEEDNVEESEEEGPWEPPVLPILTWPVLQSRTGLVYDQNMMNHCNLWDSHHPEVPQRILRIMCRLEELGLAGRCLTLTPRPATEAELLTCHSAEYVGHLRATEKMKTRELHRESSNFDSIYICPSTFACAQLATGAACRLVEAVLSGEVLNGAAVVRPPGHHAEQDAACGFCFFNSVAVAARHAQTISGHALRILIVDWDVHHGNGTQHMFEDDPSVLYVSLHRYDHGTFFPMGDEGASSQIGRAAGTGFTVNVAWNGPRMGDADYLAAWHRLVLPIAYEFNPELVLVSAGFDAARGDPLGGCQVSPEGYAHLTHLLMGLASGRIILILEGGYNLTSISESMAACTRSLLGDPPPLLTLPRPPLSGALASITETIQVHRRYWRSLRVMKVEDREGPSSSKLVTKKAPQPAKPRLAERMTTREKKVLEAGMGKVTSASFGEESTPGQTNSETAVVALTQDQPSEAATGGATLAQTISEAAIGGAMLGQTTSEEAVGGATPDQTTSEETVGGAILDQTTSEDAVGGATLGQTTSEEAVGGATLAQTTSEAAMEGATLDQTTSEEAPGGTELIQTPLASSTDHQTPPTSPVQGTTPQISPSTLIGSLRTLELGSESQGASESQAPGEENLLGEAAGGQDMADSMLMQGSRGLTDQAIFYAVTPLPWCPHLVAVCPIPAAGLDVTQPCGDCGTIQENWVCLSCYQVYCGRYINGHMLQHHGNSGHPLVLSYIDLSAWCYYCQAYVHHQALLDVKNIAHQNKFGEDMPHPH

Histone deacetylase 11 = target: T2, Histone deacetylase 11 (Homo sapiens, UniProt Q96DB2); experiment: Inhibition of recombinant full length human HDAC11 expressed in baculovirus infected Sf9 cells using FAM-RHKK-TFAc as substrate incubated for 17 hrs by electrophoretic mobility shift assay
T2 sequence (Q96DB2 whole entry): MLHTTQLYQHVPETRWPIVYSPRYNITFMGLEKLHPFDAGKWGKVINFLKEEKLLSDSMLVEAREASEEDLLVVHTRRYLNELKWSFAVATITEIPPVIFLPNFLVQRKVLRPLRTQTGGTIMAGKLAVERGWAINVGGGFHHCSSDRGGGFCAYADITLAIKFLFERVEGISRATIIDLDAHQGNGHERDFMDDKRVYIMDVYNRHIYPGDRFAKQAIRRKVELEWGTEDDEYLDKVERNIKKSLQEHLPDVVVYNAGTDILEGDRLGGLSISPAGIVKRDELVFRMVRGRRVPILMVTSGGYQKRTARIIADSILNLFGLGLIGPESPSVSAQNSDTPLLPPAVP

Histone deacetylase 8 = target: T3, Histone deacetylase 8 (Homo sapiens, UniProt Q9BY41); experiment: Inhibition of recombinant full length human HDAC8 expressed in baculovirus infected Sf9 cells using FAM-RHKK-TFAc as substrate incubated for 3 hrs by electrophoretic mobility shift assay
T3 sequence (Q9BY41 whole entry): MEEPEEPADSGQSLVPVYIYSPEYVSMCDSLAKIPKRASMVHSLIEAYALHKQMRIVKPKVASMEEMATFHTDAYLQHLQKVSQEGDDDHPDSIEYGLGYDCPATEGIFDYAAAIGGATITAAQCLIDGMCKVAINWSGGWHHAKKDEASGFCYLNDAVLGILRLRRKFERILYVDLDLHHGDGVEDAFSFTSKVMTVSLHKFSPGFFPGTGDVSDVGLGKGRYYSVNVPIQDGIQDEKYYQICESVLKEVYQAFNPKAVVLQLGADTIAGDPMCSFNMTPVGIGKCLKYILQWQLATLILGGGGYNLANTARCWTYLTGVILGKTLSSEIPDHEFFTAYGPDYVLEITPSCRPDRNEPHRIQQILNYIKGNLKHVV

MOLM-13 = experiment: Cytotoxicity against human MOLM13 cells assessed as reduction in cell viability incubated for 72 hrs by cell-titer blue assay; type: functional, cell-based; conditions: MOLM-13, 72 h
[3] = target: T1, Protein deacetylase HDAC6; experiment: Inhibition of recombinant full length human HDAC6 expressed in baculovirus infected Sf9 cells assessed as inhibitory constant using FAM-RHKK-Ac as substrate incubated for 5 hrs by electrophoretic mobility shift assay
[4] = Efflux ratio of apparent permeability in human Caco2 cells incubated for 2 hrs by LC/MS analysis; type: ADME, cell-based, Caco-2; conditions: Caco-2
Histone deacetylase 9 = Histone deacetylase 9 (Homo sapiens, UniProt Q9UKV0); experiment: Inhibition of recombinant human HDAC9 (604-1066 residues) expressed in baculovirus infected Sf9 cells using FAM-RHKK-TFAc as substrate incubated for 3 hrs by electrophoretic mobility shift assay
[5] = target: T4, Polyamine deacetylase HDAC10 (Homo sapiens, UniProt Q969S8); experiment: Inhibition of recombinant full length human HDAC10 expressed in baculovirus infected Sf9 cells using FAM-RHKK-Ac as substrate incubated for 17 hrs by electrophoretic mobility shift assay
T4 sequence (Q969S8 whole entry): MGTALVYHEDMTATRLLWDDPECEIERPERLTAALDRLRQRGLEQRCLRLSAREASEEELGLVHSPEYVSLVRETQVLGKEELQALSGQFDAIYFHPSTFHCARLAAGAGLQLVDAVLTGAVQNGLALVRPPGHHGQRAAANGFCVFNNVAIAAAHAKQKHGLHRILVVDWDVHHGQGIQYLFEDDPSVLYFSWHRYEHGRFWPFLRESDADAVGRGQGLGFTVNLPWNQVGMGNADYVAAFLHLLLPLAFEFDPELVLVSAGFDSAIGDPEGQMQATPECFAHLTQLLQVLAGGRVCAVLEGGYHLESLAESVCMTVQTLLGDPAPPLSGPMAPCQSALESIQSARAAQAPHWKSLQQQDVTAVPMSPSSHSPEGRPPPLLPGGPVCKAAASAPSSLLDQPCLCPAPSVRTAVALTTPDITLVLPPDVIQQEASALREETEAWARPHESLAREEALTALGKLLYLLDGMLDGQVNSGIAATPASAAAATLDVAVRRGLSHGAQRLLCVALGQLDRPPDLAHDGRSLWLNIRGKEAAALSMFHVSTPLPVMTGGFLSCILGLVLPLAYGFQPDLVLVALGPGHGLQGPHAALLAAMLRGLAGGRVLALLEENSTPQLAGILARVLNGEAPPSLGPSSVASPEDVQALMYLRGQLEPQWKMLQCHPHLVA

Histone deacetylase 5 = Histone deacetylase 5 (Homo sapiens, UniProt Q9UQL6); experiment: Inhibition of recombinant full length human HDAC5 expressed in baculovirus infected Sf9 cells using FAM-RHKK-TFAc as substrate incubated for 3 hrs by electrophoretic mobility shift assay
Chain of Histone deacetylase 5 (Q9UQL6 whole entry): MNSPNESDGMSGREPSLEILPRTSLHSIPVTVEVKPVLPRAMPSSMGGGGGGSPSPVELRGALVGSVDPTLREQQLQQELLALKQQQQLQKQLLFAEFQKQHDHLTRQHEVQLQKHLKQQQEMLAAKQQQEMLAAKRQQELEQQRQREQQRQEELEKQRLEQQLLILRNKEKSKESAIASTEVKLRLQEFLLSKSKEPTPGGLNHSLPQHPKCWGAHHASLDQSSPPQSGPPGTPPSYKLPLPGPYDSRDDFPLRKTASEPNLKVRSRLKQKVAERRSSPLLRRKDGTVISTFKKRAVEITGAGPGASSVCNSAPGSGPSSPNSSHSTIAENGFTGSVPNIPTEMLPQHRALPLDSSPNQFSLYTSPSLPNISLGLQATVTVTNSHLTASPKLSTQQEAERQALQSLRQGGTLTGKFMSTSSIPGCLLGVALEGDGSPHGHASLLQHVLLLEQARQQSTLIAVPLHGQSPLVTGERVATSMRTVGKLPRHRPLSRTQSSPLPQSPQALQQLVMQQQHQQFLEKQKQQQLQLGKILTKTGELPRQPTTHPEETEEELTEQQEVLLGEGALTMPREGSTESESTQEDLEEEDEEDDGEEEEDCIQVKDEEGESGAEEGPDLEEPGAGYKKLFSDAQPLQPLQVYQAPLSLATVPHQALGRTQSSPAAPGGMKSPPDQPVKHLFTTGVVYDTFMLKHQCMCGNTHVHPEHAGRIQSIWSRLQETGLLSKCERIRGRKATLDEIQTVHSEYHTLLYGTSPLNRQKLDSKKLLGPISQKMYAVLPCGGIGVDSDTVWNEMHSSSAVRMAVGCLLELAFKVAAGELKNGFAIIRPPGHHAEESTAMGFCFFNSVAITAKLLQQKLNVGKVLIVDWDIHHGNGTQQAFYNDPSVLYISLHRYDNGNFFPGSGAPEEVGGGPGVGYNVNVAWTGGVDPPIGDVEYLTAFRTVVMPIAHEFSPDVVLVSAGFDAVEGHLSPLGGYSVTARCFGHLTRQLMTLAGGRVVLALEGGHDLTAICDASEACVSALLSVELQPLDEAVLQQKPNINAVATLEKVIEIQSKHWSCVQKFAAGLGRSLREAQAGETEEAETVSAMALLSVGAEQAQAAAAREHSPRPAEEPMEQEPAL

Chain of Histone deacetylase 3 (O15379 whole entry): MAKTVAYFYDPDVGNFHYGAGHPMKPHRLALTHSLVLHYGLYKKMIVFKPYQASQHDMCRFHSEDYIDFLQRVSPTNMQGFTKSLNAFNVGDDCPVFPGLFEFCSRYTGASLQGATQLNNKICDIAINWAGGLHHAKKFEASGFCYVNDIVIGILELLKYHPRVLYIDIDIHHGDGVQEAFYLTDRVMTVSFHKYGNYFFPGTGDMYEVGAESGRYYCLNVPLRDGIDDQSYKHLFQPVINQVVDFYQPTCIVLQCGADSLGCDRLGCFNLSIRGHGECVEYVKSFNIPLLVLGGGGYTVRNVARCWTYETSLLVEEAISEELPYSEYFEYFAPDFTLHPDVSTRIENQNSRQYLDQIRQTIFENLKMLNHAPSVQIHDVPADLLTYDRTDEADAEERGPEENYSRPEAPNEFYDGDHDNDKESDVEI
Chain of Histone deacetylase 9 (Q9UKV0 whole entry, the tested form may be a part): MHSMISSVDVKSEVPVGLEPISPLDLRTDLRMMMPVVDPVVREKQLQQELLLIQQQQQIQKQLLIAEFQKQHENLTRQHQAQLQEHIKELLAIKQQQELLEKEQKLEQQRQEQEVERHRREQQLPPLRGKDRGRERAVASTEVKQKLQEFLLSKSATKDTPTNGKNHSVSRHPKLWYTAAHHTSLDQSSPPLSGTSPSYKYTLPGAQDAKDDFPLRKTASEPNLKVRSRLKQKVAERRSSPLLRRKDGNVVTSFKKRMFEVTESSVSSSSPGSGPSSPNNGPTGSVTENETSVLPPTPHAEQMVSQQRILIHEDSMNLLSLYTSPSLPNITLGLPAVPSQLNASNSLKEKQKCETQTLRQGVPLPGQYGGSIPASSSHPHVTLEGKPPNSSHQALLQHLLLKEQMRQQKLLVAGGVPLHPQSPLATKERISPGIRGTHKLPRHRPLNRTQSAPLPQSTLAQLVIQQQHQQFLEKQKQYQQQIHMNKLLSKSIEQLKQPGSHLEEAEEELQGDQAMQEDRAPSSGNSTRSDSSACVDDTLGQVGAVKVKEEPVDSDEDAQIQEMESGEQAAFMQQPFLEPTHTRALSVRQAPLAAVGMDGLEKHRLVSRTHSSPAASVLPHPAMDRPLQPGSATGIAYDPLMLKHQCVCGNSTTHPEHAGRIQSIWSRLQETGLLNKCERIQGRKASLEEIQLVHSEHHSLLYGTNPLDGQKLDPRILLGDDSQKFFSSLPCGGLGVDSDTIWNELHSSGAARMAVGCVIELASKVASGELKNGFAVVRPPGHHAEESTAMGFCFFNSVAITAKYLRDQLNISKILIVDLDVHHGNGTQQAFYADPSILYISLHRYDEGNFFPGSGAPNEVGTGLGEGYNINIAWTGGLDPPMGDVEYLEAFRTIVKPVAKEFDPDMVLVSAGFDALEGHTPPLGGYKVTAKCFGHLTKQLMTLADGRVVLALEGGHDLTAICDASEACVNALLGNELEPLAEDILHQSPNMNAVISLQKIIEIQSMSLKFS

SMILES | IC50 (MDA-MB-231) [µM] | IC50 (MDA-MB-468) [µM] | IC50 (Histone deacetylase 3) [µM] | IC50 (MV4-11) [µM] | IC50 [1] [µM] | IC50 [2] [µM] | IC50 (Histone deacetylase 11) [µM] | IC50 (Histone deacetylase 8) [µM] | IC50 (MOLM-13) [µM] | Ki [3] [µM] | efflux ratio at 2 h [4] | IC50 (Histone deacetylase 9) [µM] | IC50 [5] [µM] | IC50 (Histone deacetylase 5) [µM]
CN(CC(=O)N(Cc1ccc(C(C)(C)C)cc1)c1ccc(C(=O)NO)cc1)S(=O)(=O)c1ccc(F)cc1 | > 25 | > 12.5 | 0.492 | 3.41 | 11.8 | 0.0552 | 0.697 | 0.0379 | 5.46 | 0.768 | – | – | – | –
C[C@H]1O[C@@H](O[C@H]2[C@@H](O)C[C@H](O[C@H]3[C@@H](O)C[C@H](O[C@H]4CC[C@@]5(C)[C@H](CC[C@@H]6[C@@H]5C[C@@H](O)[C@]5(C)[C@@H](C7=CC(=O)OC7)CC[C@]65O)C4)O[C@@H]3C)O[C@@H]2C)C[C@H](O)[C@@H]1O [DIGOXIN] | – | – | – | – | – | – | – | – | – | – | 73 | – | – | –
COCCc1ccc(OCC(O)CNC(C)C)cc1 (configuration not stated) [METOPROLOL] | – | – | – | – | – | – | – | – | – | – | 1 | – | – | –
CN(C(=O)CN(C)S(=O)(=O)c1ccc(F)cc1)c1ccc(C(=O)NO)cc1 | – | – | 0.708 | 14.6 | – | 0.117 | > 1 | 0.573 | 24.8 | 0.793 | – | – | – | –
CC(C)(C)c1ccc(CNc2ccc(C(=O)NO)cc2)cc1 | > 25 | > 25 | 0.503 | 3.49 | 16.1 | 0.11 | > 1 | > 1 | 9.47 | 0.451 | – | – | – | –
CC(C)(C)OC(=O)N(Cc1ccc(C(C)(C)C)cc1)c1ccc(C(=O)NO)cc1 | > 25 | > 25 | 0.374 | 3.12 | 9.49 | 0.0282 | 0.837 | 0.635 | 10.3 | 0.201 | – | – | – | –
Cn1cc(CNCC2CCN(c3ncc(C(=O)NO)cn3)CC2)c2ccccc21 [QUISINOSTAT] | – | – | – | – | – | – | – | – | – | – | – | 0.0067 | 0.00196 | 0.00595
CC(C)(C)c1ccc(CN(C(=O)CNS(=O)(=O)c2ccc(F)cc2)c2ccc(C(=O)NO)cc2)cc1 | – | > 12.5 | 0.372 | 3.33 | 10.8 | 0.0528 | 0.665 | 0.028 | 5.11 | 0.293 | – | – | – | –
CC(C)(C)c1ccc(CN(C(=O)CN(Cc2c(F)c(F)c(F)c(F)c2F)S(C)(=O)=O)c2ccc(C(=O)NO)cc2)cc1 | > 12.5 | > 25 | 0.213 | 1.62 | > 25 | 0.0277 | > 1 | 0.133 | 2.98 | 1.09 | – | – | – | –
O=C(NO)c1ccc(N(Cc2ccccc2)C(=O)CN(Cc2c(F)c(F)c(F)c(F)c2F)S(=O)(=O)c2ccc(F)cc2)cc1 | – | – | 0.132 | 5.8 | – | 0.00149 | 0.0519 | 0.0906 | 8.05 | 1.86 | – | – | – | –
CC(=O)N(Cc1ccc(C(C)(C)C)cc1)c1ccc(C(=O)NO)cc1 | > 25 | > 25 | 0.276 | 4.24 | – | 0.0713 | > 1 | 0.0854 | 10.6 | 0.199 | – | – | – | –
CN(C(=O)CN(Cc1c(F)c(F)c(F)c(F)c1F)S(=O)(=O)c1ccc(F)cc1)c1ccc(C(=O)NO)cc1 | > 25 | > 25 | 0.213 | 3.24 | > 25 | 0.0201 | > 1 | 0.224 | 14.1 | 0.573 | – | – | – | –
